Reference: US8796280B2, “2,3-disubstituted pyrazinesulfonamides as CRTH2 inhibitors” (Merck Serono, S.A., priority 2005, dated 2014)

What was measured:
CRTH2 [1] = molecular target: T1, CRTH2 (Homo sapiens (Human), UniProt Q9Y5Y4); experiment: Radioligand binding assay ([3H]PGD2 displacement, hCRTH2 HEK293 (EBNA) cell membranes); conditions: 1.5 nM [3H]PGD2, 10 μg hCRTH2 HEK293 (EBNA) membrane protein, 60 min room temperature; test concentration not given
Description: Human CRTH2 cDNA was amplified by PCR using a human urinary bladder cDNA library as a template and specific primers containing HindIII and BamHI restriction sites for cloning into the pCEP4 vector (Invitrogen). The vector construction is described in detail in Sawyer et al., Br. J. Pharmocol 2002, 137, 1163-72. The nucleotide sequence of the cloned cDNA was identical the previously reported hCRTH2 sequence (Nagata et al, 1999, J. Immunol. 162, 1278-1286).
HEK293 (EBNA) cells were transfected with the pCEP4-hCRTH2 construct using the calcium phosphate technique. Cells were maintained in culture at 37° C. in an atmosphere of 5% CO2 in Dulbecco's modified Eagle's F12 medium (Invitrogen), containing 10% heat-inactivated foetal calf serum (TerraCell International, Canada), 2 mM Glutamine, 100 units/ml of penicillin and 100 μg/ml streptomycin (Invitrogen). 48 hours after the transfection, cells were grown in presence of 300 μg/ml of Hygromycin B (Invitrogen) for 4 weeks and antibiotic resistant cells were amplified for cell membrane preparation.
Adherent HEK293 (EBNA) cells expressing hCRTH2 were cultured in 225 cm^2 cell culture flasks (Corning, USA) in 30 ml of medium. After two rinses of phosphate buffered saline (PBS), cells were harvested in 10 ml of PBS containing 1 mM EDTA, centrifuged at 500×g for 5 min at 4° C. and frozen at −80° C. The pellet was re-suspended in 50 mM Tris-HCl, pH 7.4, 2 mM EDTA, 250 mM Sucrose, containing protease inhibitor cocktail tablets, (Complete EDTA-free, Roche, Germany) and incubated 30 min at 4° C. Cells were disrupted by nitrogen cavitation (Parr Instruments, USA) at 4° C. (800 p.s.i. for 30 min), and centrifuged at 500×g for 10 min at 4° C. Pellet containing nuclei and cellular debris was discarded and supernatant was centrifuged 60 min at 4° C. at 45000×g. Membrane pellet was re-suspended in storage buffer (10 mM HEPES/KOH pH 7.4, 1 mM EDTA, 250 mM sucrose, protease inhibitor cocktail tablets) using Dounce homogenization and frozen in liquid nitrogen, and stored at −80° C.
(§1) The inhibitory activity can be investigated by a radioligand binding assay (Sawyer et al., Br. J. Pharmocol 2002, 137, 1163-72). The radioligand binding assay was performed at room temperature in binding buffer (10 mM HEPES/KOH pH […], with protease inhibitor cocktail tablets), containing 1.5 nM [^3H]PGD2 (Amersham, 156 Cie/mmol), and 10 μg of hCRTH2 HEK293 (EBNA) cell membrane protein in a final volume of 100 μl in 96 well plates (Corning, USA). Non-specific binding was determined in the presence of 1 μM PGD2 (Cayman, USA). Competing pyrazine sulfonamides were diluted in dimethylsulphoxide so that the total volume of dimethylsulfoxide was kept constant at 1% dimethylsulphoxide (Me2SO). 10 μl of the pyrazine sulfonamides were added. Incubation (60 min at room temperature) was terminated by rapid filtration through 96 wells hydrophobic GF/C Unifilter plates (Whatman, USA). Filters were washed twice with 250 μl of Tris-HCl pH 7.4, 10 mM MnCl2, and residual radioligand bound to the filters was mixed to 100 μl of liquid scintillation cocktail (Optiphase Supermix, Perkin Elmer, USA) and binding activity was determined by counting residual radioligand using a 1450 Micro-beta scintillation counter (Wallac, UK).

CRTH2 [2] = molecular target: T1, CRTH2; experiment: Determination of Ki, equilibrium competition binding against [3H]PGD2; conditions: competition against [3H]PGD2; average of at least three independent dose response experiments; Ki calculated from IC50
Experimental: as §1
Ki values were determined by equilibrium competition binding experiments against [^3H]PGD2. Ki values were calculated from the formula below and represent the average of at least three independent dose response experiments. The Ki values give the ligand concentrations necessary to inhibit 50% of the binding of 3[H]PGD2 to CRTH2. Ki=IC50/(1+[Concentration of Ligand]/Kd)]
All experiments were performed in 96 well plates, in a final volume of 100 μl according to the above described filtration assay. The concentration of membranes and 3[H]PGD2, as well as the positive and negative controls were identical to the conditions described above.

T1 sequence (Q9Y5Y4 whole entry): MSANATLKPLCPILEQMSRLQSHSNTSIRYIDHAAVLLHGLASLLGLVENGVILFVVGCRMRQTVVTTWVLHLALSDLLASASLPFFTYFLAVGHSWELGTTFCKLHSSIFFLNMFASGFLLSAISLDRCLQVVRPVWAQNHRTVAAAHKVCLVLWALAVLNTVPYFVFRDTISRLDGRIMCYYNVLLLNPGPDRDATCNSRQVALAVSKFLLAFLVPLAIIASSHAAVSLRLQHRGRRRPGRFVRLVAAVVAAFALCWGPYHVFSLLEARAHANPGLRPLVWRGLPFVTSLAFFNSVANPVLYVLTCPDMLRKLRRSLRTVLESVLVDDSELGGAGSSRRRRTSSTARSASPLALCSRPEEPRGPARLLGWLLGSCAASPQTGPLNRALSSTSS

SMILES	Inhibition hCRTH2 [%] (CRTH2 [1])	Ki (CRTH2 [2])
CN(Cc1ccc(-c2nccnc2NS(=O)(=O)c2ccccc2Cl)cc1)c1ccccc1 [Compound 4, 2-chloro-N-[3-(4-{[methyl(phenyl)amino]methyl}phenyl)pyrazin-2-yl]-benzenesulfonamide]	84.5%	1.57 µM
O=S(=O)(Nc1nccnc1-c1ccc(COc2ccc3ccccc3c2)cc1)c1ccccc1Cl [Compound 5, 2-chloro-N-(3-{4-[(2-naphthyloxy)methyl]phenyl}pyrazin-2-yl)benzene-sulfonamide]	82.0%	2.32 µM
O=S(=O)(Nc1nccnc1-c1ccc(Cn2ccc3ccccc32)cc1)c1ccccc1Cl [Compound 6, 2-chloro-N-{3-[4-(1H-indol-1-ylmethyl)phenyl]pyrazin-2-yl}benzene-sulfonamide]	81.5%	2.12 µM
O=S(=O)(Nc1nccnc1-c1ccc(COc2ccc3c(c2)CCCC3)cc1)c1ccccc1Cl [Compound 7, 2-chloro-N-(3-{4-[(5,6,7,8-tetrahydronaphthalen-2-yloxy)methyl]-phenyl}-pyrazin-2-yl)benzenesulfonamide]	80.0%	2.59 µM
CCc1nc2ccccc2n1Cc1ccc(-c2nccnc2NS(=O)(=O)c2ccccc2Cl)cc1 [Compound 8, 2-chloro-N-(3-{4-[(2-ethyl-1H-benzimidazol-1-yl)methyl]phenyl}pyrazin-2-yl)benzenesulfonamide]	79.0%	1.42 µM
O=S(=O)(Nc1nccnc1-c1ccc(CNc2ccc3c(c2)OCO3)cc1)c1ccccc1C(F)(F)F [Compound 9, N-(3-{4-[(1,3-benzodioxol-5-ylamino)methyl]phenyl}pyrazin-2-yl)-2-(trifluoromethyl)benzenesulfonamide]	72.5%	2.98 µM
COc1cccc(COCc2ccc(-c3nccnc3NS(=O)(=O)c3ccccc3C(F)(F)F)cc2)c1 [Compound 10, N-[3-(4-{[(3-methoxybenzyl)oxy]methyl}phenyl)pyrazin-2-yl]-2-(trifluoromethyl)benzenesulfonamide]	72.0%	1.4 µM
CN(Cc1ccc(-c2nccnc2NS(=O)(=O)c2cccc(Cl)c2)cc1)c1ccc(OC(F)(F)F)cc1 [Compound 11, 3-chloro-N-{3-[4-({methyl[4-(trifluoromethoxy)phenyl]amino}methyl)phenyl]pyrazin-2-yl}benzenesulfonamide]	65.0%	5.16 µM
CN(Cc1ccc(-c2nccnc2NS(=O)(=O)c2cccs2)cc1)c1ccc(Cl)cc1 [Compound 12, N-[3-(4-{[(4-chlorophenyl)(methyl)amino]methyl}phenyl)pyrazin-2-yl]-thiophene-2-sulfonamide]	65.0%	8.43 µM
O=S(=O)(Nc1nccnc1N1CCN(Cc2ccc3ccccc3n2)CC1)c1ccc(Oc2ccccc2)cc1 [Compound 13, 4-phenoxy-N-{3-[4-(quinolin-2-ylmethyl)piperazin-1-yl]pyrazin-2-yl}-benzenesulfonamide]	64.5%	4.03 µM
Cc1ccc(S(=O)(=O)Nc2nccnc2-c2ccc(CN(C)c3ccc(OC(F)(F)F)cc3)cc2)cc1 [Compound 14, 4-methyl-N-{3-[4-({methyl[4-(trifluoromethoxy)phenyl]amino}-methyl)phenyl]pyrazin-2-yl}benzenesulfonamide]	53.0%	5.85 µM
CN(Cc1ccc(-c2nccnc2NS(=O)(=O)c2ccc(Cl)cc2)cc1)c1ccccc1 [Compound 15, 4-chloro-N-[3-(4-{[methyl(phenyl)amino]methyl}phenyl)pyrazin-2-yl]-benzenesulfonamide]	51.0%	5.38 µM
CN(Cc1ccc(-c2nccnc2NS(=O)(=O)c2ccc(C#N)cc2)cc1)c1ccc(OC(F)(F)F)cc1 [Compound 16, 4-cyano-N-{3-[4-({methyl[4-(trifluoromethoxy)phenyl]amino}-methyl)phenyl]pyrazin-2-yl}benzenesulfonamide]	47.0%	5.71 µM
CN(Cc1ccc(-c2nccnc2NS(=O)(=O)c2ccccc2C(F)(F)F)cc1)c1ccc(F)cc1 [Compound 17, N-[3-(4-{[(4-Fluoro-phenyl)-methyl-amino]-methyl}-phenyl)-pyrazin-2-yl]-2-trifluoromethyl-benzenesulfonamide]	–	0.38 µM
CN(Cc1ccc(-c2nccnc2NS(=O)(=O)c2ccccc2C(F)(F)F)cc1)c1ccccc1 [Compound 18, N-(3-{4-[(Methyl-phenyl-amino)-methyl]-phenyl}-pyrazin-2-yl)-2-trifluoromethyl-benzenesulfonamide]	–	0.4 µM
O=S(=O)(Nc1nccnc1-c1ccc(Cn2ccc3cc(F)ccc32)cc1)c1ccccc1Cl [Compound 41, 2-Chloro-N-{3-[4-(5-fluoro-indol-1-ylmethyl)-phenyl]-pyrazin-2-yl}-benzenesulfonamide]	–	3.9 µM
CN(Cc1ccc(-c2nccnc2NS(=O)(=O)c2ccccc2Cl)cc1)c1ccccc1F [Compound 42, 2-Chloro-N-[3-(4-{[(2-fluoro-phenyl)-methyl-amino]-methyl}-phenyl)-pyrazin-2-yl]-benzenesulfonamide]	–	3.9 µM
Cc1cc2ccccc2n1Cc1ccc(-c2nccnc2NS(=O)(=O)c2ccccc2Cl)cc1 [Compound 43, 2-Chloro-N-{3-[4-(2-methyl-indol-1-ylmethyl)-phenyl]-pyrazin-2-yl}-benzenesulfonamide]	–	4.11 µM
CCN(Cc1ccc(-c2nccnc2NS(=O)(=O)c2ccccc2Cl)cc1)c1ccccn1 [Compound 45, 2-Chloro-N-(3-{4-[(ethyl-pyridin-2-yl-amino)-methyl]-phenyl}-pyrazin-2-yl)-benzenesulfonamide]	–	4.51 µM
